{"source": "patent US11110102B2", "about": "“Antifungal agents used in combination” (Scynexis, Inc., priority 2017, dated 2021)", "assay_in_all_cases": "Checkerboard combination MIC testing", "assay_type_in_all_cases": "cell-based, Aspergillus fumigatus", "key": {"A. fumigatus MRL #28500": {"test_system": "A. fumigatus MRL #28500", "conditions": "read at 48 hours, duplicate", "excerpt": "(§1) To determine the type of interaction between a representative compound of the enfumafungin derivatives (SCY-078) with several antifungal agents against Aspergillus fumigatus, the most frequent mold causing invasive disease in humans, the checkerboard method was used. The citrate salt of the compound was used in the studies.\n(§2) The checkerboard method involves the determination of percent growth inhibition of fungal cells in the presence of different combinations of drugs. Percent growth inhibition is calculated relative to growth in control wells which contain only cells and no drug. The assay was performed in 96-well microplates in which each row and each column contained twofold serial dilutions of drug A and drug B at concentrations ranging from 0 to slightly higher than their minimum inhibitory concentration (MIC). […] Then the inoculum was added to each well and the growth was evaluated after 48 hrs incubation to determine the first well in which growth was inhibited. The checkerboard-based determination of MICs of antifungal agents in combination was followed by further analysis employing the nonparametric fractional inhibitory concentration index (FICI), which is defined by the following equation:\n(§3) [formula] where MIC-A and MIC-B are the MICs of drugs A and B, respectively.\n(§4) Each drug was initially diluted in either sterile, distilled water or in DMSO, depending on whether the drug was water-soluble or water-insoluble, respectively.\n(§5) Stock solution of SCY-078 was prepared in DMSO at 200 times the concentration desired for use in the drug plates. Serial dilutions of stock solution were conducted in DMSO to obtain eleven 2-fold dilutions of the drug. The SCY-078 solution was then diluted to 4 times the desired concentration in RPMI-1640 medium so that the DMSO would not limit growth of the organism and so that the quantity of DMSO was the same for every dilution.\n(§6) Two 96-well plates are needed to conduct a combination test. Using a multichannel pipette, 50 μl of the lowest concentration of the first drug (Drug A) was added to each well of column 1 of the first plate (plate A) and column 1 of the second plate (plate B; rows A-D). Then, 50 μl of the next highest working dilution of Drug A was added to each well in column 2, continuing with dilutions until all columns 1-11 were filled. Column 12 was left empty. 50 μl of the lowest concentration of Drug B was added to each well in Row D of plate B. 50 μl of the next highest working dilution of Drug B was added to each well in row C of plate B, continuing with dilutions until all rows through row B of plate A were filled.\n(§7) Following the above, 100 μl of organism inoculum was added to every well. The plates were then incubated for 48 hours and visually read after incubation.\n(§8) The objective of the study was to determine whether the combination of SCY-078 with voriconazole, isavuconazole, or amphotericin B would result in a combined in vitro antifungal activity exceeding the sum of the activities of each drug alone. Combination MIC testing was performed using the checkerboard assay described above.\nA. fumigatus 28500 has a CYP51 mutation at F46Y.\n(§9) Initial MIC determinations of the individual antifungals were performed according to the Clinical and Laboratory Standards Institute (CLSI) M38-A2 standard for the susceptibility testing of filamentous fungi.\n(§10) Combination MIC testing was performed using a checkerboard test method according to the Center for Medical Mycology SOP A11.3. The checkerboard combination test method is a modification of the microdilution antifungal susceptibility test wherein two test compounds are combined in varying concentrations to determine whether they have synergistic, antagonistic, or no effect on the respective MIC values.\nAntifungals were serially diluted two-fold in RPMI medium to produce eleven concentrations each and were combined in wells of a microtiter plate. Two rows consisting of serial dilutions of each individual drug were included. […]"}, "A. fumigatus MRL #28382": {"test_system": "A. fumigatus MRL #28382", "conditions": "A. fumigatus MRL 28382 (wild-type), read at 48 hours, duplicate", "excerpt": "as §1, §2, §3, §4, §5, §6, §7, §8, §9, §10\n(§11) Antifungals were serially diluted two-fold in RPMI medium to produce eleven concentrations each and were combined in wells of a microtiter plate. Two rows consisting of serial dilutions of each individual drug were included. All combination testing was conducted in duplicate. […]"}, "A. fumigatus MRL #28383": {"test_system": "A. fumigatus MRL #28383", "conditions": "A. fumigatus MRL 28383 (azole-resistant), read at 48 hours, duplicate", "excerpt": "as §1, §2, §3, §4, §5, §6, §7, §8, §9, §10, §11"}, "A. fumigatus MRL #20438": {"test_system": "A. fumigatus MRL #20438", "conditions": "A. fumigatus MRL 20438 (wild-type), read at 48 hours, duplicate", "excerpt": "as §1, §2, §3, §4, §5, §6, §7, §8, §9, §10, §11"}, "A. fumigatus MRL #28378": {"test_system": "A. fumigatus MRL #28378", "conditions": "A. fumigatus MRL 28378 (wild-type), read at 48 hours, duplicate", "excerpt": "as §1, §2, §3, §4, §5, §6, §7, §8, §9, §10, §11"}, "A. fumigatus MRL #28401": {"test_system": "A. fumigatus MRL #28401", "conditions": "A. fumigatus MRL 28401 (wild-type), read at 48 hours, duplicate", "excerpt": "as §1, §2, §3, §4, §5, §6, §7, §8, §9, §10, §11"}, "[1]": {"conditions": "SCY-078 combined with voriconazole"}, "[2]": {"conditions": "Aspergillus fumigatus, SCY078, 48 h, drug alone, SCY-078/voriconazole test, read-out: MIC Alone"}, "[3]": {"conditions": "SCY-078 combined with amphotericin B"}, "[4]": {"conditions": "drug alone, SCY-078/amphotericin B test"}}, "note": "Values joined by “and” are separate entries in the source; they are usually repeats but may differ in a detail not shown here. Equal values may be shown once."}
{"smiles": "C[C@@H](c1ncncc1F)[C@](O)(Cn1cncn1)c1ccc(F)cc1F", "note": "[Voriconazole, voriconazole]", "values": [{"measurement": "MIC in Combination", "setting": "A. fumigatus MRL #28500; A. fumigatus MRL 28500 (azole-resistant, CYP51 F46Y), SCY-078 combined with voriconazole", "result": ">16", "unit": "µg/mL"}, {"measurement": "MIC", "setting": "A. fumigatus MRL #28500; Aspergillus fumigatus, SCY078, 48 h, read-out: MIC Alone, A. fumigatus MRL 28500 (azole-resistant, CYP51 F46Y), drug alone, SCY-078/voriconazole test", "result": "> 16", "unit": "µg/mL"}, {"measurement": "MIC in Combination", "setting": "A. fumigatus MRL #28382; [1]", "result": "0.125 µg/mL and 0.25 µg/mL"}, {"measurement": "MIC", "setting": "A. fumigatus MRL #28382; [2]", "result": 0.5, "unit": "µg/mL"}, {"measurement": "MIC in Combination", "setting": "A. fumigatus MRL #28383; [1]", "result": ">16", "unit": "µg/mL"}, {"measurement": "MIC", "setting": "A. fumigatus MRL #28383; [2]", "result": "> 16", "unit": "µg/mL"}, {"measurement": "MIC in Combination", "setting": "A. fumigatus MRL #20438; [1]", "result": 0.25, "unit": "µg/mL"}, {"measurement": "MIC", "setting": "A. fumigatus MRL #20438; [2]", "result": 1, "unit": "µg/mL"}, {"measurement": "MIC Alone", "setting": "A. fumigatus MRL #28378; drug alone, SCY-078/voriconazole test", "result": 0.25, "unit": "µg/mL"}, {"measurement": "MIC", "setting": "A. fumigatus MRL #28378; [2]", "result": 0.5, "unit": "µg/mL"}, {"measurement": "MIC in Combination", "setting": "A. fumigatus MRL #28401; [1]", "result": 0.5, "unit": "µg/mL"}, {"measurement": "MIC", "setting": "A. fumigatus MRL #28401; [2]", "result": 2, "unit": "µg/mL"}]}
{"smiles": "C[C@@H]1[C@H](O)[C@@H](C)/C=C/C=C/C=C/C=C/C=C/C=C/C=C/[C@H](O[C@@H]2O[C@H](C)[C@@H](O)[C@H](N)[C@@H]2O)C[C@@H]2O[C@](O)(C[C@@H](O)C[C@@H](O)[C@H](O)CC[C@@H](O)C[C@@H](O)CC(=O)O[C@H]1C)C[C@H](O)[C@H]2C(=O)O", "note": "[Amphotericin B, amphotericin B]", "values": [{"measurement": "MIC in Combination", "setting": "A. fumigatus MRL #28500; A. fumigatus MRL 28500 (azole-resistant, CYP51 F46Y), SCY-078 combined with amphotericin B", "result": 1, "unit": "µg/mL"}, {"measurement": "MIC Alone", "setting": "A. fumigatus MRL #28500; A. fumigatus MRL 28500 (azole-resistant, CYP51 F46Y), drug alone, SCY-078/amphotericin B test", "result": 4, "unit": "µg/mL"}, {"measurement": "MIC in Combination", "setting": "A. fumigatus MRL #28382; [3]", "result": "1 µg/mL and 0.5 µg/mL"}, {"measurement": "MIC Alone", "setting": "A. fumigatus MRL #28382; [4]", "result": 4, "unit": "µg/mL"}, {"measurement": "MIC in Combination", "setting": "A. fumigatus MRL #28383; [3]", "result": "4 µg/mL and 2 µg/mL"}, {"measurement": "MIC Alone", "setting": "A. fumigatus MRL #28383; [4]", "result": "4 µg/mL and 2 µg/mL"}, {"measurement": "MIC in Combination", "setting": "A. fumigatus MRL #20438; [3]", "result": 0.5, "unit": "µg/mL"}, {"measurement": "MIC Alone", "setting": "A. fumigatus MRL #20438; [4]", "result": 4, "unit": "µg/mL"}, {"measurement": "MIC in Combination", "setting": "A. fumigatus MRL #28378; [3]", "result": 0.5, "unit": "µg/mL"}, {"measurement": "MIC Alone", "setting": "A. fumigatus MRL #28378; [4]", "result": 2, "unit": "µg/mL"}, {"measurement": "MIC in Combination", "setting": "A. fumigatus MRL #28401; [3]", "result": "1 µg/mL and 0.5 µg/mL"}, {"measurement": "MIC Alone", "setting": "A. fumigatus MRL #28401; [4]", "result": 4, "unit": "µg/mL"}]}
